These results are taken from PubChem BioAssay AID256 (DTP/NCI, 2004).

Several values for one entry are separate records, joined by “and”; a condition that tells them apart may be missing. Identical values can stand only once. Inconclusive results and toxic doses are left out.

This test concerns CD2F1 mice, L1210 leukemia ip, survival T/C. Briefly: NCI In Vivo Anticancer Drug Screen. Data for tumor model L1210 Leukemia (intraperitoneal) in CD2F1 (CDF1) mice. The settings on record: endpoint: mean survival time, higher = longer survival. In short, it runs like this: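 Ratio T/C, where T is the treated-group value and C the vehicle-dosed control value, from mice implanted with a transplantable tumor.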

Setting [1] is: dose: 100.0 mg/kg/injection, schedule: Q04DX003 (ip), vehicle: saline with Tween-80.
[2] abbreviates: dose: 200.0 mg/kg/injection, schedule: Q04DX003 (ip), vehicle: saline with Tween-80.
[3] abbreviates: dose: 400.0 mg/kg/injection, schedule: Q04DX003 (ip), vehicle: saline with Tween-80.

In the case of `CC[C@H]1CN2CCc3cc(OC)c(OC)cc3[C@@H]2C[C@@H]1C[C@H]1NCCc2cc(O)c(OC)cc21`, the T/C (dose: 0.5 mg/kg/injection, schedule: Q01DX015 (ip), vehicle: saline) is 107 % of control; the T/C (dose: 1.0 mg/kg/injection, schedule: Q01DX015 (ip), vehicle: saline) is 110 % of control; the T/C (dose: 2.0 mg/kg/injection, schedule: Q01DX015 (ip), vehicle: saline) is 122 % of control; the T/C (dose: 8.0 mg/kg/injection, schedule: Q01DX015 (ip), vehicle: saline) is 115 % of control; the T/C (dose: 16.0 mg/kg/injection, schedule: Q01DX015 (ip), vehicle: saline) was 89 % of control.

Take `CC(=O)Nc1ccc(Br)c(NC(C)=O)n1`: the T/C by setting is: under setting [1], 95 % of control; under setting [2], 98 % of control; under setting [3], 104 % of control.

For `COc1ccc(C(=O)C(C)(C)C)cc1`, the T/C reads like this: (dose: 100.0 mg/kg/injection, schedule: Q04DX002 (ip), vehicle: saline with Tween-80) 108 % of control; (dose: 200.0 mg/kg/injection, schedule: Q04DX002 (ip), vehicle: saline with Tween-80) 97 % of control.

Regarding `C=CCNc1ccc(OC)cc1`, the T/C reads like this: under setting [1], 101 % of control; under setting [2], 95 % of control.

`CC1=CC(=NN=c2cc(C)n([O-])c(C)c2)C=C(C)[N+]1=O`: the T/C is 104 % of control (dose: 12.5 mg/kg/injection, schedule: Q01DX009 (ip), vehicle: saline with Tween-80); 108 % of control (dose: 12.5 mg/kg/injection, schedule: Q01DX009 (ip), vehicle: suspension in saline); 108 % of control (dose: 25.0 mg/kg/injection, schedule: Q01DX009 (ip), vehicle: saline with Tween-80); 110 % of control (dose: 25.0 mg/kg/injection, schedule: Q01DX009 (ip), vehicle: suspension in saline); 101 % of control (dose: 50.0 mg/kg/injection, schedule: Q01DX009 (ip), vehicle: saline with Tween-80); 106 % of control (dose: 50.0 mg/kg/injection, schedule: Q01DX009 (ip), vehicle: suspension in saline). In addition, the T/C reads like this: (dose: 100.0 mg/kg/injection, schedule: Q01DX009 (ip), vehicle: suspension in saline) 104 % of control; (dose: 200.0 mg/kg/injection, schedule: Q01DX009 (ip), vehicle: saline with Tween-80) 106 % of control; (dose: 200.0 mg/kg/injection, schedule: Q01DX009 (ip), vehicle: suspension in saline) 166 % of control.

In the case of `CC(C)C(NC(=O)OC(C)(C)C)C(=O)ON1C(=O)CCC1=O` (stereo not drawn), the T/C by setting is: under setting [1], 104 % of control; under setting [2], 100 % of control.

Regarding `COc1ccc(C(=O)CC(C#N)c2ccc3c(c2)OCO3)cc1OC` (stereo not drawn), the T/C is 93 % of control under setting [1], 91 % of control under setting [2] and 93 % of control under setting [3].

Turning to `O=C(CCl)NC(=O)CCl`, the T/C reads like this: (dose: 25.0 mg/kg/injection, schedule: Q01DX009 (ip), vehicle: saline sonified) 90 % of control; (dose: 50.0 mg/kg/injection, schedule: Q01DX009 (ip), vehicle: saline sonified) 104 % of control; (dose: 100.0 mg/kg/injection, schedule: Q01DX009 (ip), vehicle: saline sonified) 90 % of control.

Take `C=CC(CN1CC1)OC(C)=O` (stereo not drawn): the T/C (dose: 2.5 mg/kg/injection, schedule: Q03DX003 (ip), vehicle: saline) is 107 % of control; the T/C (dose: 2.5 mg/kg/injection, schedule: Q04DX003 (ip), vehicle: saline) is 100 % of control; the T/C (dose: 3.75 mg/kg/injection, schedule: Q01DX009 (ip), vehicle: saline) is 159 % of control; the T/C (dose: 5.0 mg/kg/injection, schedule: Q01DX007 (ip), vehicle: saline) is 172 % of control; the T/C (dose: 5.0 mg/kg/injection, schedule: Q01DX009 (ip), vehicle: saline) is 160 % of control; the T/C (dose: 5.0 mg/kg/injection, schedule: Q03DX003 (ip), vehicle: saline) is 121 % of control. The T/C reads like this: (dose: 5.0 mg/kg/injection, schedule: Q04DX003 (ip), vehicle: saline) 111 % of control; (dose: 7.5 mg/kg/injection, schedule: Q01DX009 (ip), vehicle: saline) 206 % of control and 249 % of control; (dose: 10.0 mg/kg/injection, schedule: Q04DX003 (ip), vehicle: saline) 153 % of control; (dose: 30.0 mg/kg/injection, schedule: Q01DX009 (ip), vehicle: saline) 91 % of control.

For the molecule `Brc1cscc1-c1ccccc1`, the T/C runs as follows: under setting [1], 93 % of control; under setting [2], 102 % of control; under setting [3], 98 % of control.

Take `O=c1[nH]c(-c2ccccc2)nc(Cc2ccccc2)c1CCO`: the T/C was 89 % of control under setting [1], 89 % of control under setting [2] and 91 % of control under setting [3].

Consider `O=c1[nH]ccn1C1CCCCC1`, for which the T/C is 100 % of control (dose: 50.0 mg/kg/injection, schedule: Q01DX001 (ip), vehicle: other); 96 % of control and 97 % of control (dose: 100.0 mg/kg/injection, schedule: Q01DX001 (ip), vehicle: other); 97 % of control and 100 % of control (dose: 200.0 mg/kg/injection, schedule: Q01DX001 (ip), vehicle: other).
